Activity calls are given as the source filed them. The calls are words filed in the database; no cut-off is given here.
What was measured:
[1] = molecular target: T1, Phosphatidylcholine:ceramide cholinephosphotransferase 1 (Homo sapiens, UniProt Q86VZ5); test: Inhibition of SMS1 (unknown origin) stably expressed in mouse ZS cells using C6-NBD-ceramide as substrate preincubated for 30 mins followed by substrate addition and measured after 3 hrs by HPLC analysis; type: cell-based
T1 sequence (Q86VZ5 whole entry): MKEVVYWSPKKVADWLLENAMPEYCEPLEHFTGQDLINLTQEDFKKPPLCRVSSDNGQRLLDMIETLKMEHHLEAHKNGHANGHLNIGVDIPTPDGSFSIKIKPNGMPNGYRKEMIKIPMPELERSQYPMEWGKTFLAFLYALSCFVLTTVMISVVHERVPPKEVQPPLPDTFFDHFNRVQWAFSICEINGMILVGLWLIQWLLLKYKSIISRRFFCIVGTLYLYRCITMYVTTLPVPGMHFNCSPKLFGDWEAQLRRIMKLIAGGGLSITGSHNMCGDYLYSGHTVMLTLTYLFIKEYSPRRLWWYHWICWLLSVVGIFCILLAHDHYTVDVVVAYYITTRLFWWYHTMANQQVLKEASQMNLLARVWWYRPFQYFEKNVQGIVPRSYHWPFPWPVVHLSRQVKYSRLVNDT

[2] = molecular target: T2, Phosphatidylcholine:ceramide cholinephosphotransferase 2 (Homo sapiens, UniProt Q8NHU3); test: Inhibition of SMS2 (unknown origin) stably expressed in mouse ZS cells using C6-NBD-ceramide as substrate preincubated for 30 mins followed by substrate addition and measured after 3 hrs by HPLC analysis; type: cell-based
T2 sequence (Q8NHU3 whole entry): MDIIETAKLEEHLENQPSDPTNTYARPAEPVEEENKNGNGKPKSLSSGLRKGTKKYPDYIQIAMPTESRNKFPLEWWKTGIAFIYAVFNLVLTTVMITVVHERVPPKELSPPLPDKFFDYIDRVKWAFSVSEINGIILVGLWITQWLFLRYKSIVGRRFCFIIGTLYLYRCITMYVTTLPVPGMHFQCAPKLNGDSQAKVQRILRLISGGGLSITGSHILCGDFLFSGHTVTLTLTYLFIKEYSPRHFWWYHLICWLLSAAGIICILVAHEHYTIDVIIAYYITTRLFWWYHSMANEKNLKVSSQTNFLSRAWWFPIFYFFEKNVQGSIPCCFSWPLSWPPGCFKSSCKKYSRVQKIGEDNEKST

[3] = molecular target: T1, Phosphatidylcholine:ceramide cholinephosphotransferase 1; test: Noncompetitive inhibition of SMS1 (unknown origin) stably expressed in mouse ZS cells using 5 to 50 uM C6-NBD-ceramide as substrate preincubated for 30 mins followed by substrate addition and measured after 3 hrs by HPLC analysis; type: cell-based
[4] = molecular target: T2, Phosphatidylcholine:ceramide cholinephosphotransferase 2; test: Noncompetitive inhibition of SMS2 (unknown origin) stably expressed in mouse ZS cells using 5 to 50 uM C6-NBD-ceramide as substrate preincubated for 30 mins followed by substrate addition and measured after 3 hrs by HPLC analysis; type: cell-based
MEF = test: Cytotoxicity against MEF cells at 0.01 to 1 mM incubated for 3 hrs by CCK8 assay relative to control; type: cell-based; conditions: mouse, 1000 µM
[5] = molecular target: T3, Phosphatidylcholine:ceramide cholinephosphotransferase 1 (Mus musculus) (UniProt Q8VCQ6); test: Inhibition of SMS1 in HFD-induced obese C57BL/6J mouse liver tissue lysate using […] as substrate assessed as reduction in SM synthesis preincubated for 30 mins followed by substrate addition and measured after 3 hrs by HPLC analysis; type: subcellular
T3 sequence (whole entry): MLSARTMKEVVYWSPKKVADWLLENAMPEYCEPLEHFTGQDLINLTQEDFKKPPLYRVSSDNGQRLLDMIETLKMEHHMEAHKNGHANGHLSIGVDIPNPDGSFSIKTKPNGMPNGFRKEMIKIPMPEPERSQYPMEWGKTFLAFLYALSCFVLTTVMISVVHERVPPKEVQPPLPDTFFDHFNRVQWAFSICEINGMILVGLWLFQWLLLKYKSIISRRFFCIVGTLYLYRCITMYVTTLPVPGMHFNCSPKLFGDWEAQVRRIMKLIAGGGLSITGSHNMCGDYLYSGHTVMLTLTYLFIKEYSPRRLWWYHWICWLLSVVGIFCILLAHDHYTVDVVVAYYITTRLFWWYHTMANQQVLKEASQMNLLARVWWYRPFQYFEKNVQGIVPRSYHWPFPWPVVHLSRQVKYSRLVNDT

[6] = Toxicity in HFD-induced obese C57BL/6J mouse model assessed as effect on behavior measured over 2 months; conditions: in vivo, 1461 h
Mus musculus [7] = species: Mus musculus; test: Antiobesity activity in HFD-induced obese C57BL/6J mouse model assessed as decrease in body weight measured after 20 days relative to control; type: functional; set-up: scale not given: the % may be the effect or the level left
[8] = Toxicity in HFD-induced obese C57BL/6J mouse model assessed as induction of leaner phenotype measured over 2 months; conditions: in vivo, 1461 h
Mus musculus [9] = species: Mus musculus; test: Antiobesity activity in HFD-induced obese C57BL/6J mouse model assessed as reduction in TG level in plasma by ELISA; type: functional, organism-based
Mus musculus [10] = species: Mus musculus; test: Antiobesity activity in HFD-induced obese C57BL/6J mouse model assessed as reduction in TG level in liver by ELISA; type: functional, organism-based
HepG2 [11] = test: Lipid lowering activity in human HepG2 cells assessed as change in oleic acid-induced free fatty acid level by ELISA; type: functional, cell-based
Mus musculus [12] = species: Mus musculus; test: Antiobesity activity in HFD-induced obese C57BL/6J mouse model assessed as decrease in liver weight relative to control; type: functional, organism-based
[13] = molecular target: T4, Phosphatidylcholine:ceramide cholinephosphotransferase 1 (Mus musculus, UniProt Q8VCQ6); test: Inhibition of SMS1 in MEF cells using C6-NBD-ceramide as substrate preincubated for 1 hr followed by substrate addition and measured after 1 hr by HPLC analysis; type: cell-based
T4 sequence (Q8VCQ6 whole entry): T3 sequence (whole entry)

Mus musculus [14] = species: Mus musculus; test: Antiobesity activity in HFD-induced obese C57BL/6J mouse model assessed as improved lipid metabolism by oil red O-staining based histopathological analysis; type: functional, organism-based
HepG2 [15] = test: Lipid lowering activity in human HepG2 cells assessed as reduction in oleic acid-induced lipid droplet formation by nile red staining based fluorescence microscopic method; type: functional, cell-based
Mus musculus [16] = species: Mus musculus; test: Antiobesity activity in HFD-induced obese C57BL/6J mouse model assessed as reduction in free fatty acid level in plasma by ELISA; type: functional, organism-based
Mus musculus [17] = species: Mus musculus; test: Antiobesity activity in HFD-induced obese C57BL/6J mouse model assessed as decrease fat content in liver; type: functional, organism-based
Mus musculus [18] = species: Mus musculus; test: Antiobesity activity in HFD-induced obese C57BL/6J mouse model assessed as resistance in steatosis development in liver by oil red O-staining based histopathological analysis; type: functional, organism-based
HepG2 [19] = test: Lipid lowering activity in human HepG2 cells assessed as prevention in oleic acid-induced CD36/FAT activation; type: functional, cell-based
HepG2 [20] = test: Lipid lowering activity in human HepG2 cells assessed as reduction in oleic acid-induced intracellular TG accumulation by ELISA; type: functional, cell-based
Mus musculus [21] = test: Antiobesity activity in HFD-induced obese C57BL/6J mouse model assessed as increase in glucose tolerance administrated orally for 8 weeks and measured post treatment by OGTT assay; type: functional, organism-based
[22] = molecular target: T5, Phosphatidylcholine:ceramide cholinephosphotransferase 2 (Mus musculus, UniProt Q9D4B1); test: Inhibition of SMS2 in MEF cells using C6-NBD-ceramide as substrate preincubated for 1 hr followed by substrate addition and measured after 1 hr by HPLC analysis; type: cell-based
T5 sequence (Q9D4B1 whole entry): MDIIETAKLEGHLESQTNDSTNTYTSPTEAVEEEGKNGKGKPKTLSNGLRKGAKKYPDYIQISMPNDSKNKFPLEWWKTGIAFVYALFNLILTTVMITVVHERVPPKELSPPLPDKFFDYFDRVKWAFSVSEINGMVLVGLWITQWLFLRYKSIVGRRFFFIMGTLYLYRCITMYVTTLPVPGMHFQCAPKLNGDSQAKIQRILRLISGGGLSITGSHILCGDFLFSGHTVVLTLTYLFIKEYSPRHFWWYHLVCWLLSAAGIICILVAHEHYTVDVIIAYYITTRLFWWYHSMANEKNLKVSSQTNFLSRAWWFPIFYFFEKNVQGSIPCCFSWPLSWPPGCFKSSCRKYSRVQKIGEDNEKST

[23] = Toxicity in HFD-induced obese C57BL/6J mouse model assessed as effect on health measured over 2 months; conditions: in vivo, 1461 h
[24] = molecular target: T6, Phosphatidylcholine:ceramide cholinephosphotransferase 2 (Mus musculus) (UniProt Q9D4B1); test: Inhibition of SMS2 in HFD-induced obese C57BL/6J mouse liver tissue lysate using NBD-ceramide as substrate assessed as reduction in […] preincubated for 30 mins followed by substrate addition and measured after 3 hrs by HPLC analysis; type: subcellular
T6 sequence (whole entry): T5 sequence (Q9D4B1 whole entry)

[25] = Toxicity in HFD-induced obese C57BL/6J mouse model assessed as effect in daily food intake relative to control; conditions: in vivo

Work on `O=C(CCCCCCCCc1ccc(O)cc1)c1c(O)cc(O)cc1O` yielded an IC50 [1] of 6 µM and an IC50 [2] of 4.5 µM.
Compound `O=C(CCCCCCCCc1ccc(O)cc1)c1c(O)cccc1O` [MALABARICONE B] has an IC50 [1] of 3.5 µM, an IC50 [3] of 2 to 3 µM and an IC50 [4] of 1 to 3 µM. It also gave an IC50 [2] of 2.5 µM.
For `O=C(CCCCCCCCc1ccc(O)c(O)c1)c1c(O)cccc1O` [MALABARICONE C], the Activity (MEF) was 56 to 97%, the inhibition [5] was “Active” and the IC50 [1] was 3 µM. The Activity [6] was “Non-Toxic”, the Activity (Mus musculus [7]) was 42.7% and the Activity [8] was “Toxic”. The Activity (Mus musculus [9]) was “Active”, the Activity (Mus musculus [10]) was “Active” and the Activity (HepG2 [11]) was “inactive”. For the same compound, the Activity (Mus musculus [12]) was “Active”, the IC50 [13] was 13 µM and the IC50 [3] was 2 to 3 µM. For the same compound, the Activity (Mus musculus [14]) was “Active”, the Activity (HepG2 [15]) was “Dose-dependent effect” and the Activity (Mus musculus [16]) was “Active”. The Activity (Mus musculus [17]) was “Active”, the Activity (Mus musculus [18]) was “Active” and the Activity (HepG2 [19]) was “Dose-dependent effect”. The IC50 [4] was 1 to 3 µM, the Activity (HepG2 [20]) was “Dose-dependent effect” and the Activity (Mus musculus [21]) was “Active”. For the same compound, the IC50 [22] was 11 µM, the IC50 [2] was 1.5 µM and the Activity [23] was “Non-Toxic”. The inhibition [24] was “Active” and the Activity [25] was “Non-Toxic”.
For `O=C(CCCCCCCCc1ccccc1)c1c(O)cccc1O` [MALABARICONE A], the IC50 [1] was 4 µM, the IC50 [3] was 2 to 3 µM and the IC50 [4] was 1 to 3 µM. It also gave an IC50 [2] of 4 µM.

Reference: ChEMBL document CHEMBL4396925, “Malabaricone C as Natural Sphingomyelin Synthase Inhibitor against Diet-Induced Obesity and Its Lipid Metabolism in Mice” (ACS Med Chem Lett, 2019)
